In ChEMBL document CHEMBL5653615 (J Biol Chem, 2013) one finds inhibition data, which are given here for two compounds.

The structures appear in SMILES notation.

By inhibition is commonly meant the drop in the measured response relative to a control, in per cent.

In test [1] the target is Serine/threonine-protein kinase PLK2 (Homo sapiens) (UniProt Q9NYY3). Kind of test: Inhibition of human PLK2 at 500 nM by HotSpot assay relative to control.
For test [2], the target named is Dual specificity mitogen-activated protein kinase kinase 1 (Homo sapiens) (UniProt Q02750). Kind of test: Inhibition of human MEK1 at 500 nM by HotSpot assay relative to control.
Dual specificity mitogen-activated protein kinase kinase 1 (Homo sapiens), sequence (Q02750 whole entry, canonical isoform): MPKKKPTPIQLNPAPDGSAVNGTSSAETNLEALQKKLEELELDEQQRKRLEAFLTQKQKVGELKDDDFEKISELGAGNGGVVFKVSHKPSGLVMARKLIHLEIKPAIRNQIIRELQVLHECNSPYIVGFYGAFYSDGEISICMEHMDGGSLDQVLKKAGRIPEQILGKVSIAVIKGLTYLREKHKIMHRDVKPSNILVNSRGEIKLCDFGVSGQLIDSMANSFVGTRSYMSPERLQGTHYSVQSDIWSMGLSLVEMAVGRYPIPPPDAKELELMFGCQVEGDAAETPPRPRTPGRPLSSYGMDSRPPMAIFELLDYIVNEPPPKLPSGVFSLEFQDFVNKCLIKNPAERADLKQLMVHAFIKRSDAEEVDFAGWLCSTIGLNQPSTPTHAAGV
In test [3] the target is Casein kinase I isoform alpha (Homo sapiens) (UniProt P48729). Kind of test: Inhibition of human CK1a1 at 500 nM by HotSpot assay relative to control.
Casein kinase I isoform alpha (Homo sapiens), sequence (P48729 2-337 limits assumed): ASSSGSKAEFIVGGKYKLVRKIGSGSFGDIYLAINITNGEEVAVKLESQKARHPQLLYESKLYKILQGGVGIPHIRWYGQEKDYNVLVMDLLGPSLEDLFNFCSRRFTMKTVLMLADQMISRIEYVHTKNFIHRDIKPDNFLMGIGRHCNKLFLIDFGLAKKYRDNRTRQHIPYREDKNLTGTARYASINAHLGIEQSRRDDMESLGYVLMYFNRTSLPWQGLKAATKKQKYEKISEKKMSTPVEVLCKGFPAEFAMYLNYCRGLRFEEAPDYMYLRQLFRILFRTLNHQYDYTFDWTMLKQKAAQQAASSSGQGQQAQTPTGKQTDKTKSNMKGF
In test [4] the target is RAC-beta serine/threonine-protein kinase (Homo sapiens) (UniProt P31751). The experiment in a line: Inhibition of human AKT2 at 500 nM by HotSpot assay relative to control.
RAC-beta serine/threonine-protein kinase (Homo sapiens), sequence (P31751 whole entry): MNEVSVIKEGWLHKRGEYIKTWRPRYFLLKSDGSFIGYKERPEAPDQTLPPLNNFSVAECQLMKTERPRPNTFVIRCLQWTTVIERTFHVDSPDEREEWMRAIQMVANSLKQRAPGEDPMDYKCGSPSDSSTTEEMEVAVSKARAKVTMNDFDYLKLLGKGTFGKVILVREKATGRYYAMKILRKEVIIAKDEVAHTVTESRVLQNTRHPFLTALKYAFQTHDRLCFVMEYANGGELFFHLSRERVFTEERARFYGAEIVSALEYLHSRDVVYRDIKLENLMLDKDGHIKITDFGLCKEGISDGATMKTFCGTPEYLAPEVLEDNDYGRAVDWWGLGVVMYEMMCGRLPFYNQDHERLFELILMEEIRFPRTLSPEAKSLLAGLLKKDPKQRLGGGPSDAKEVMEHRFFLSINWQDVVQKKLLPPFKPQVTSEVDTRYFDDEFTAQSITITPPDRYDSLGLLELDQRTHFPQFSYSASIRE
The target of test [5] is Proto-oncogene tyrosine-protein kinase ROS (Homo sapiens) (UniProt P08922). Kind of test: Inhibition of human ROS1 at 500 nM by HotSpot assay relative to control.
Proto-oncogene tyrosine-protein kinase ROS (Homo sapiens), sequence (P08922 whole entry): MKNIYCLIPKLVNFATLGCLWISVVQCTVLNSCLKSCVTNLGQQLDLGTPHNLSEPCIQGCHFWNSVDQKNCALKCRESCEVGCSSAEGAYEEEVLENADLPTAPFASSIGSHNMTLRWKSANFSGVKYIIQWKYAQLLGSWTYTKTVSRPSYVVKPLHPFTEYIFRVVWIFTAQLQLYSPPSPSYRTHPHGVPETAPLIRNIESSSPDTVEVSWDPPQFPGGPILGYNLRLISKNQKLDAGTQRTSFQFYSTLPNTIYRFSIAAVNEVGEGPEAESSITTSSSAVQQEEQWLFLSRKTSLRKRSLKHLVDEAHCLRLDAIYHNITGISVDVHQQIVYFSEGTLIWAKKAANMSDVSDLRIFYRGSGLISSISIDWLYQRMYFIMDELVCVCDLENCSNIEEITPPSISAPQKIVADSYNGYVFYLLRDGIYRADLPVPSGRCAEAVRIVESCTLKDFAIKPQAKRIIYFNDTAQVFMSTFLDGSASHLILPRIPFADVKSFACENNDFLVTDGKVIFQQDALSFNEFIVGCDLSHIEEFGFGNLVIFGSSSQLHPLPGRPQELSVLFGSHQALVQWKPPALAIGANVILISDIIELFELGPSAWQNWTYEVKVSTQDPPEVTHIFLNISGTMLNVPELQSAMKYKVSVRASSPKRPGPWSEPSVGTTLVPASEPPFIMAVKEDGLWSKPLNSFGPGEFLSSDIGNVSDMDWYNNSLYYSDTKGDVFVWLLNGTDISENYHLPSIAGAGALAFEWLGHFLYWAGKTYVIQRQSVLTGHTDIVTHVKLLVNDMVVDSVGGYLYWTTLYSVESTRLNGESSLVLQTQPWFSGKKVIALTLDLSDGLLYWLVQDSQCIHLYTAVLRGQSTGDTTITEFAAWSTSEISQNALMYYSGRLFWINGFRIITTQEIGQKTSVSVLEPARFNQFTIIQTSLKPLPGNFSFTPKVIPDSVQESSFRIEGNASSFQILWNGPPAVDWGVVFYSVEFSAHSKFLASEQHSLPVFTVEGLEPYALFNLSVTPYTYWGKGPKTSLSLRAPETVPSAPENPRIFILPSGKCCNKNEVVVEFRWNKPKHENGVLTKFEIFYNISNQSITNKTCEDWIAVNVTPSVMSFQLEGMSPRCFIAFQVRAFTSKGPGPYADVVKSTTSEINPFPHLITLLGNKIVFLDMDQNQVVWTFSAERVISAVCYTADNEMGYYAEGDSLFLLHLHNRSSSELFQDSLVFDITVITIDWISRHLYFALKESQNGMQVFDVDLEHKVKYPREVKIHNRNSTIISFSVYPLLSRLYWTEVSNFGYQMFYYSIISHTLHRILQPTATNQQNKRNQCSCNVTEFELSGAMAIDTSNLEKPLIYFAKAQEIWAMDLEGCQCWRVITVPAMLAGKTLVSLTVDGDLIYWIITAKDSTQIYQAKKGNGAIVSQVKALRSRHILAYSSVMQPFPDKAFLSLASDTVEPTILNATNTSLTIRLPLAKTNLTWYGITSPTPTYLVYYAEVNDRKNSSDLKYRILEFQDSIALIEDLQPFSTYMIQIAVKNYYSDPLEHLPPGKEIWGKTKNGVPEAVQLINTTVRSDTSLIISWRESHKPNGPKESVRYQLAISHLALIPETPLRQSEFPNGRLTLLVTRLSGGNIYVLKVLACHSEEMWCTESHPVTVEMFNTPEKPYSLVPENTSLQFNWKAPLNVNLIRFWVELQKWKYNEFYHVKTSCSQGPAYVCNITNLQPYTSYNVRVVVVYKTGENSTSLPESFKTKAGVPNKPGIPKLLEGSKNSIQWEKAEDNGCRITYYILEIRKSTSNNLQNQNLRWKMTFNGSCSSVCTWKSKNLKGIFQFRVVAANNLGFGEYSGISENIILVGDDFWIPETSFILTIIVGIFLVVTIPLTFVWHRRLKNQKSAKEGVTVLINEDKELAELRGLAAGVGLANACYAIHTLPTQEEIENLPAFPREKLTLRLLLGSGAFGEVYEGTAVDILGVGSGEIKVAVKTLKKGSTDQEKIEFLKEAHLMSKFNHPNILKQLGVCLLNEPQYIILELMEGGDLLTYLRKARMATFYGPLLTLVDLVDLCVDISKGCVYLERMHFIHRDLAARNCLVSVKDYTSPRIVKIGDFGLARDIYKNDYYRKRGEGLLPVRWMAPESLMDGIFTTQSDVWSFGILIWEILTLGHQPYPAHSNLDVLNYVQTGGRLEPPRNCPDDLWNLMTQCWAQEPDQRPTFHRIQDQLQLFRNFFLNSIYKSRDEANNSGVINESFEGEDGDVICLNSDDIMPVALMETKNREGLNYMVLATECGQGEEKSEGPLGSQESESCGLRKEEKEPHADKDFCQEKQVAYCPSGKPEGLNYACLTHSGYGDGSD
Test [6] addresses T1, Ephrin type-B receptor 2 (Homo sapiens) (UniProt P29323).
T1 sequence (whole entry): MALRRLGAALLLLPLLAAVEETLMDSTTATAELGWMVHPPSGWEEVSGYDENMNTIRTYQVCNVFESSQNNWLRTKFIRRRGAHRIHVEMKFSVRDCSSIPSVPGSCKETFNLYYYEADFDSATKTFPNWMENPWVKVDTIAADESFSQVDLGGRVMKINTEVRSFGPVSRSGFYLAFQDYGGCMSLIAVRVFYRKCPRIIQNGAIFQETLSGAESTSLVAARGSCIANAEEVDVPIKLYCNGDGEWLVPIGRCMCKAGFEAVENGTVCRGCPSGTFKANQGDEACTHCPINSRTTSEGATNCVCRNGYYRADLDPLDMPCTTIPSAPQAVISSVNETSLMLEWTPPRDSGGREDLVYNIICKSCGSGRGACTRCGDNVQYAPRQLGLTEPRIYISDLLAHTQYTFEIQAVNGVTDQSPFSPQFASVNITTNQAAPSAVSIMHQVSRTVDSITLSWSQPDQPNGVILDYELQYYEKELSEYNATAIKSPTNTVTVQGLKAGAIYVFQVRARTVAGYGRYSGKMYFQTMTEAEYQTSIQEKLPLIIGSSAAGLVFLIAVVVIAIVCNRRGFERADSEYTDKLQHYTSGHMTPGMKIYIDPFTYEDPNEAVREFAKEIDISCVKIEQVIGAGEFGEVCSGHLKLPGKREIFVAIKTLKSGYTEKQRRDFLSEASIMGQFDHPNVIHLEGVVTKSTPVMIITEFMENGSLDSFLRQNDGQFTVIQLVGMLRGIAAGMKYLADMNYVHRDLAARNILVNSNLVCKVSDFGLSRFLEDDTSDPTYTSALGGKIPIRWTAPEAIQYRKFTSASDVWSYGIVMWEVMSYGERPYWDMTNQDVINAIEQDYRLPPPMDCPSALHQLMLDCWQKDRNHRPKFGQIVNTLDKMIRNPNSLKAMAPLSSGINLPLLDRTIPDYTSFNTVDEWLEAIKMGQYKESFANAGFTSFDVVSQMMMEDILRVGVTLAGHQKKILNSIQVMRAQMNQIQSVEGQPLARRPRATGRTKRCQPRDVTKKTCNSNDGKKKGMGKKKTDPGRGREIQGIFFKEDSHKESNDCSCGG
Kind of test: Inhibition of human EPHB2 at 500 nM by HotSpot assay relative to control.

In test [7] the target is Ribosomal protein S6 kinase alpha-2 (Homo sapiens) (UniProt Q15349). Kind of test: Inhibition of human RSK3 at 500 nM by HotSpot assay relative to control.
The target of test [8] is PAS domain-containing serine/threonine-protein kinase (Homo sapiens) (UniProt Q96RG2). Kind of test: Inhibition of human PASK at 500 nM by HotSpot assay relative to control.
For test [9], the target named is Tyrosine-protein kinase ABL1 (Homo sapiens) (UniProt P00519). The experiment in a line: Inhibition of human ABL1 at 500 nM by HotSpot assay relative to control.
Test [10] concerns the target T2, Inhibitor of nuclear factor kappa-B kinase subunit alpha (Homo sapiens) (UniProt O15111).
T2 sequence (whole entry): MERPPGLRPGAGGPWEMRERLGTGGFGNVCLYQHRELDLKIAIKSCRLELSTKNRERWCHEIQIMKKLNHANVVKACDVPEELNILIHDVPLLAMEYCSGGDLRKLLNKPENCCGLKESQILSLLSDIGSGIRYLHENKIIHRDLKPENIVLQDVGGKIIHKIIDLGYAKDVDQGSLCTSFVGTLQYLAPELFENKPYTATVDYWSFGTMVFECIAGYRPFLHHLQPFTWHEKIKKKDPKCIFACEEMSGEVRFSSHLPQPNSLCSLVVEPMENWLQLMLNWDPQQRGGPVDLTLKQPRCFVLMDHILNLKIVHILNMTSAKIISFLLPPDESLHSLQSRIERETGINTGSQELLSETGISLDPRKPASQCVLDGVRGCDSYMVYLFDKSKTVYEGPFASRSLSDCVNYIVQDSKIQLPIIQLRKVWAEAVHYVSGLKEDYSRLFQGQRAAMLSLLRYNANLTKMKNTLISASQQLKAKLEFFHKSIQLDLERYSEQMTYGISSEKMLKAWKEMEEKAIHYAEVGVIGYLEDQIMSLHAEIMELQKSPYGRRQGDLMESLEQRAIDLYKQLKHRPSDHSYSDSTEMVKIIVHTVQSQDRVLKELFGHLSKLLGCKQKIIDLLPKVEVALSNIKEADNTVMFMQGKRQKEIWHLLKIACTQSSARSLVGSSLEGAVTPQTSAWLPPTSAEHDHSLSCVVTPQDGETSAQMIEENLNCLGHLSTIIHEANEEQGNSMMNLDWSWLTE
Kind of test: Inhibition of human IKKa at 500 nM by HotSpot assay relative to control.

Test [11] addresses Macrophage-stimulating protein receptor (Homo sapiens) (UniProt Q04912). The experiment in a line: Inhibition of human MST1R at 500 nM by HotSpot assay relative to control.
Test [12] addresses Tyrosine-protein kinase Blk (Homo sapiens) (UniProt P51451). The experiment in a line: Inhibition of human BLK at 500 nM by HotSpot assay relative to control.
Test [13] concerns the target Death-associated protein kinase 3 (Homo sapiens) (UniProt O43293). Kind of test: Inhibition of human DAPK3 at 500 nM by HotSpot assay relative to control.
Test [14] concerns the target Tyrosine-protein kinase receptor UFO (Homo sapiens) (UniProt P30530). Kind of test: Inhibition of human AXL at 500 nM by HotSpot assay relative to control.

Tyrosine-protein kinase Blk (Homo sapiens), sequence (P51451 2-505 limits assumed): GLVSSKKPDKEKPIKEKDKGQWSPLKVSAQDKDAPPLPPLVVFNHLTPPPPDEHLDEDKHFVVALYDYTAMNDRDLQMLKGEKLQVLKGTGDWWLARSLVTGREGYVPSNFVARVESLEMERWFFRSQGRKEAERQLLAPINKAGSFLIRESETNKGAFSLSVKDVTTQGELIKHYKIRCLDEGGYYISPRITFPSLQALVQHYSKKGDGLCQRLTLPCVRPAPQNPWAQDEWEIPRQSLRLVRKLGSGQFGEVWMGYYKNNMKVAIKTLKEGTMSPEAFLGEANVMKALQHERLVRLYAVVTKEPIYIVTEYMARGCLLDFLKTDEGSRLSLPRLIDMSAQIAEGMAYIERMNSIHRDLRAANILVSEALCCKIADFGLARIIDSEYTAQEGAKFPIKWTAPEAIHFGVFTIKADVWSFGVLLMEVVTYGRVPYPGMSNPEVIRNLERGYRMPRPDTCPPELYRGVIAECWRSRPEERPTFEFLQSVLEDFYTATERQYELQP
Death-associated protein kinase 3 (Homo sapiens), sequence (O43293 whole entry, looked up): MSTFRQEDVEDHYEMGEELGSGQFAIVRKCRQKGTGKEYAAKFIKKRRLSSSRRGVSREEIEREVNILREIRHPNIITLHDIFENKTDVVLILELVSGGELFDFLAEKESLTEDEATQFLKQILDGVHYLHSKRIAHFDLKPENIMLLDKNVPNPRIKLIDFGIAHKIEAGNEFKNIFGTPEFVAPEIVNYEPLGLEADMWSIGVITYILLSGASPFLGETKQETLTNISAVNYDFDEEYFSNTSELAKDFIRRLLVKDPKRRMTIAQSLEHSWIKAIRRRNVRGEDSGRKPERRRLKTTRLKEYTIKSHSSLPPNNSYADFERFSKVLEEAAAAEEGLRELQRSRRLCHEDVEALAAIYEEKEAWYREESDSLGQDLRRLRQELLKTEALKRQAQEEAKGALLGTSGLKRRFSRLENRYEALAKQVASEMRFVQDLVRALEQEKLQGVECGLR

For `Oc1n[nH]c2nnc(-c3c(-c4ccccc4)nn4ccccc34)cc12`, the inhibition in test [1] was -3.28%; in test [2], 5.15%; in [3], -6.61%; in test [4] it was -5.44%; in test [5], 2.73%; in [6] it was 5.22%. The inhibition in test [7] is -4.14%; in [8], -0.26%; in test [9] it was 0.36%; in [10], -0.4%; in test [11], -6.32%; in test [12] it was 2.09%. For the same compound, the inhibition in test [13] is -0.67%; in test [14], -1.44%.
Consider `Nc1n[nH]c2nnc(-c3c(-c4ccccc4)nn4ccccc34)cc12`, for which the inhibition was -6.73% in test [1]; 5.65% in test [2]; -0.27% in test [3]; 2.47% in test [4]; 19.8% in [5]; 6.94% in test [6]. Further, the inhibition in test [7] was 3.51%; in test [8], 0.21%; in [9], 16.7%; in [10], 2.52%; in test [11], -1.66%; in [12], 1.92%. Further, the inhibition is -2.11% in test [13] and 0.88% in [14].
